Results reported in patent publication US20240208959A1, “THIAZOLE/ISOTHIAZOLE HSD17B13 INHIBITORS AND USES THEREOF” (INIPHARM, INC., priority 2021, published 2024).
pIC50: −log10 of the molar value.

Target: T1, HSD17B13 enzyme (Homo sapiens, UniProt Q7Z5P4)
T1 construct: His; made in house; host or cells: E. coli
T1 sequence (Q7Z5P4 20-300): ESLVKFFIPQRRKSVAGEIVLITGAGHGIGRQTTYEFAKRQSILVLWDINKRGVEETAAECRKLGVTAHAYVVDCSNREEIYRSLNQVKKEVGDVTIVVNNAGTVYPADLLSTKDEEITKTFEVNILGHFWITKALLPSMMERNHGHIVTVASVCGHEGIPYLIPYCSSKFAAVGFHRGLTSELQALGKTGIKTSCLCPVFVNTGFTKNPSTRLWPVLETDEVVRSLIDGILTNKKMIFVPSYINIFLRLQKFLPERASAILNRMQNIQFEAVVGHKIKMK
Assay: LC/MS estrone detection assay: conversion of estradiol to estrone by HSD17B13
Format: biochemical
Settings: 4 μM Estradiol, 6mM NAD, 30 nM HSD17B13 enzyme (E. coli expressed His-tagged), 2 hours at 26.5° C.
Method: Example A: Estrone Detection Assay for Evaluation of HSD17β13 Activity and Identification of Inhibitors
The liquid chromatography/mass spectrometry (LC/MS) estrone detection assay monitors the conversion of estradiol to estrone by HSD17B13. This assay was undertaken in a 96wp format (Eppendorf deep well Plate 96/500) in an 80 μl reaction volume containing: 4 μM of Estradiol (E2: Cayman: #10006315), 6mM NAD (Sigma: #N0623) and 30 nM HSD17B13 enzyme (in-house: E. coli expressed His-tagged, purified, soluble protein) in a reaction containing […] potassium phosphate buffer pH 7.4, with 0.5% vehicle (DMSO). Reactions were incubated for 2 hours at 26.5° C., and estradiol (E2) conversion to estrone (E1) was quantitated by LC-MS/MS based analyte detection for both E2 and E1 using LCMS grade reagents.
Reactions were terminated by the addition of two volumes of acetonitrile (MeCN: LCMS grade: CAS #75/05/8) containing deuterated (D4)-E1 used as internal standard (Clear Synth: #CS-T-54273: 500 ng/mL final concentration). Samples were applied to pre-prepared Bond Elut-C18 extraction cartridges (3 mL: Agilent: #12102028), washed and eluted in MeCN. Eluates were dried under nitrogen and re-suspended in 60% methanol (LCMS grade methanol: CAS #67/56/1) before submission for analysis. Aqueous linearity for E2 and E1 were included for quantification.
Analysis of samples was undertaken on a XBridge BEH C18 column (Waters: #186003033) using 0.1% Diethyl Amine in MeCN (mobile phase A: DEA CAS #109-89-7) and 0.1% Diethyl Amine in milli-Q water (mobile phase B) in a 3 min gradient allowing 25% B. Analytes were detected in negative mode using MRM analysis, with E2 having a RT of 1.85 min and E1 having a RT of 2 min Activity of the enzyme, in the absence of NAD′, was used to evaluate specificity of conversion. Enzyme activity in the presence of test samples was expressed as a percentage of the uninhibited enzyme activity, and plotted versus inhibitor concentration. Non-linear regression was performed using a four-parameter logistic model and GraphPad Prism software (GraphPad Software, La Jolla, CA). All assessments were undertaken in duplicate evaluations and pooled during extraction process and subsequently injected as duplicates for LC-MS/MS analysis.

| pIC50 | SMILES |
| --- | --- |
| ≥ 7.00 | O=C(Nc1ncsc1C(=O)NCc1ccccc1C(F)(F)F)c1cc(F)c(O)c(F)c1 [Example 4, 4-(3,5-difluoro-4-hydroxybenzamido)-N-(2-(trifluoromethyl)benzyl)thiazole-5-carboxamide] |
| < 5.00 | O=C(Nc1scnc1C(=O)NCc1ccccc1OC(F)(F)F)c1c[nH]c(=O)cn1 [Example 16, 5-(5-oxo-4,5-dihydropyrazine-2-carboxamido)-N-(2-(trifluoromethoxy)benzyl)thiazole-4-carboxamide] |
| < 5.00 | CC(C)c1cc(C(=O)Nc2scnc2C(=O)NCc2ccccc2OC(F)(F)F)n[nH]c1=O [Example 14, 5-(5-isopropyl-6-oxo-1,6-dihydropyridazine-3-carboxamido)-N-(2-(trifluoromethoxy)benzyl)thiazole-4-carboxamide] |
| ≥ 7.00 | O=C(Nc1ncsc1C(=O)NCc1ccccc1C(F)(F)F)c1cc(F)c(O)c(Cl)c1 [Example 9, 4-(3-chloro-5-fluoro-4-hydroxybenzamido)-N-{[2-(trifluoromethyl)phenyl]methyl}-1,3-thiazole-5-carboxamide] |
| 6.00 to 6.30 | CC(C)(C)CCNC(=O)c1scnc1NC(=O)c1ccc(O)c(C(F)(F)F)n1 [Example 3, N-(3,3-dimethylbutyl)-4-(5-hydroxy-6-(trifluoromethyl)picolinamido)thiazole-5-carboxamide] |
| ≥ 7.00 | Cc1nsc(NC(=O)c2ccc(O)c(Cl)c2)c1C(=O)NCCC(C)(C)C [Example 5, 5-(3-chloro-4-hydroxybenzamido)-N-(3,3-dimethylbutyl)-3-methylisothiazole-4-carboxamide] |
| 6.30 to 7.00 | O=C(Nc1ncsc1C(=O)NCc1ccccc1F)c1cc(F)c(O)c(Cl)c1 [Example 10, 4-(3-chloro-5-fluoro-4-hydroxybenzamido)-N-(2-fluorobenzyl)thiazole-5-carboxamide] |
| 6.00 to 6.30 | O=C(Nc1scnc1C(=O)NCc1ccccc1OC(F)(F)F)c1cc(Cl)c(=O)[nH]n1 [Example 13, 5-(5-chloro-6-oxo-1,6-dihydropyridazine-3-carboxamido)-N-(2-(trifluoromethoxy)benzyl)thiazole-4-carboxamide] |
| < 5.00 | O=C(Nc1scnc1C(=O)NCc1ccccc1OC(F)(F)F)c1ccc(=O)[nH]n1 [Example 15, 5-(6-oxo-1,6-dihydropyridazine-3-carboxamido)-N-(2-(trifluoromethoxy)benzyl)thiazole-4-carboxamide] |
| 6.30 to 7.00 | COC(=O)C(NC(=O)c1scnc1NC(=O)c1ccc(O)c(Cl)c1)c1ccccc1 (stereo in doubt) [Example 7, methyl (R)-2-(4-(3-chloro-4-hydroxybenzamido)thiazole-5-carboxamido)-2-phenylacetate] |
| 5.00 to 6.00 | O=C(Nc1ncsc1C(=O)NC(C(=O)O)c1ccccc1)c1ccc(O)c(Cl)c1 (stereo in doubt) [Example 8, (R)-2-(4-(3-chloro-4-hydroxybenzamido)thiazole-5-carboxamido)-2-phenylacetic Acid] |
| 6.30 to 7.00 | O=C(Nc1ncsc1C(=O)NCCc1ccccc1C(F)(F)F)c1ccc(O)c(C(F)(F)F)n1 [Example 1, 4-(5-hydroxy-6-(trifluoromethyl)picolinamido)-N-(2-(trifluoromethyl)phenethyl)thiazole-5-carboxamide] |
| ≥ 7.00 | COc1ccccc1CCNC(=O)c1nc(C)sc1NC(=O)c1ccc(O)c(Cl)c1 [Example 12, 5-(3-chloro-4-hydroxybenzamido)-N-(2-methoxyphenethyl)-2-methylthiazole-4-carboxamide] |
| ≥ 7.00 | O=C(Nc1scnc1C(=O)NC(CO)c1ccccc1)c1ccc(O)c(Cl)c1 (stereo in doubt) [Example 6, (R)-5-(3-chloro-4-hydroxybenzamido)-N-(2-hydroxy-1-phenylethyl)thiazole-4-carboxamide] |
| 6.30 to 7.00 | O=C(Nc1ncsc1C(=O)NCc1ccccc1OC(F)(F)F)c1cc(F)c(O)c(Cl)c1 [Example 11, 4-(3-chloro-5-fluoro-4-hydroxybenzamido)-N-(2-(trifluoromethoxy)benzyl)thiazole-5-carboxamide] |
| 6.30 to 7.00 | O=C(Nc1ncsc1C(=O)NCCc1ccccc1F)c1ccc(O)c(C(F)(F)F)n1 [Example 2, N-(2-fluorophenethyl)-4-(5-hydroxy-6-(trifluoromethyl)picolinamido)thiazole-5-carboxamide] |
